Laboratory results from patent US20260263593A1, “ALLERGY ANTIGEN AND EPITOPE THEREOF” (HOYU CO., LTD., priority 2018, published 2026).

Test system: IgE antibodies from patients having allergies to each food
Assay: Confirmation of epitope cross-reactivity by ELISA with N-terminally biotinylated peptides
Assay type: binding, human
Conditions: serum of allergic patient versus nonallergic subject
Description: The binding activity of peptides comprising the amino acid sequences described in the column “Synthesis sequence” and the rightmost column “SEQ ID NO” of Table 3 against IgE antibodies from patients having allergies to each food described in the column “Food with which cross-reactivity was confirmed” in Tables 3-1 to 3-50 was confirmed by ELISA. The peptides were synthesized such that the peptides were N-terminally biotinylated by the Fmoc method.
To be specific, ELISA was carried out according to the following procedure. • (1) The concentrations of the biotinylated peptides were adjusted to 10 μg/mL with PBST (0.1% Tween 20). • (2) Each peptide solution was added at 20 μL to each well of a 384-well plate coated with streptavidin, and shaken at room temperature for one hour. After collection of the solution, the wells were washed with PBS five times. • (3) Pierce Protein-Free (PBS) Blocking Buffer (produced by Thermo) was added at 40 μL thereto and shaken at room temperature for one hour. After removal of the solution, the wells were washed with PBST five times. • (4) 2% serum/Canget SignalSolution I (produced by TOYOBO) was added at 20 μL thereto and shaken at room temperature for one hour. After removal of the solution, the wells were washed with PBST five times. • (5) A diluted secondary antibody solution (1:10000, Canget SignalSolution II (produced by TOYOBO)) was added at 20 μL thereto and shaken at room temperature for one hour. After removal of the solution, the wells were washed with PBST five times. • (6) 1-Step Ultra TMB-ELISA (produced by Thermo) was added at 20 μL thereto and shaken at room temperature for 15 minutes. • (7) 2 M H2SO4 was added at 20 μL thereto. Absorbance at 450 nm was measured.
Peptides having these amino acid sequences were prepared by the same procedure as described in Example 4(A), and the presence or absence of binding thereto of IgE antibodies present in the serum of an allergic patient and the serum of a nonallergic subject was measured. The serum of two nonallergic subjects was measured, and values obtained by dividing the measurement values by an average value thereof were described.
The ordinate of each figure depicts “absorbance of the allergic patient/absorbance of the nonallergic patient (healthy subject)”. Different contrasts of two bar graphs for the same sequences mean separate patients. For example, graph No. 8 and No. 10 in FIG. 7 are results about different patients as to peptides having the same sequences. The names of the cooking ingredients described in each graph are the names of cooking ingredients containing a polypeptide comprising an amino acid sequence serving as the basis of each synthetic sequence used.

| Substance | Epitope cross-reactivity |
| --- | --- |
| SEQ ID NO: 587: polypeptide consisting of 4 amino acid residues, epitope sequence of polypeptide (E4) (ELEE; VAR_SEQ 1..4 epitope) | confirmed in many samples |
| SEQ ID NO: 593: polypeptide consisting of 4 amino acid residues, epitope sequence of polypeptide (E4) (TLLEPE; VAR_SEQ 1..6 epitope) | confirmed in many samples |
| SEQ ID NO: 595: polypeptide consisting of 4 amino acid residues, epitope sequence of polypeptide (E5) (MEEL; VAR_SEQ 1..4 epitope) | confirmed in many samples |
| SEQ ID NO: 636: polypeptide consisting of 4 amino acid residues, epitope sequence of polypeptide (E9) (SQKE; VAR_SEQ 1..4 epitope) | confirmed in many samples |
| SEQ ID NO: 655: polypeptide consisting of 4 amino acid residues, epitope sequence of polypeptide (E11) (KNAK; VAR_SEQ 1..4 epitope) | confirmed in many samples |
| SEQ ID NO: 662: polypeptide consisting of 4 amino acid residues, epitope sequence of polypeptide (E11) (NAKR; VAR_SEQ 1..4 epitope) | confirmed in many samples |

Test system: IgE antibody present in the serum of a shrimp-allergic patient
Assay: Epitope mapping (1): array of overlapping 15-amino-acid peptides, chemiluminescence
Assay type: binding, human
Conditions: 15-amino-acid peptide array; serum of 37 patients; difference from N2nd value of 5 non-shrimp-allergic subjects at least 35,000
Description: Epitope mapping was carried out using a library of overlapping peptides (length: 15 amino acids) corresponding to the amino acid sequences identified as allergy components of shrimp and the amino acid sequence of arginine kinase. Specifically, the library of overlapping peptides was prepared on the basis of the amino acid sequences of SEQ ID NOs: 117, 141, 146, 2, 45, 87, 276, 161, 230, 179, 362, 381, 399, 421, 455, 481, 486, 520, 541, 300 and 306, and arginine kinase.
The peptides to be synthesized were shifted by 10 amino acids.
For preparation of peptide arrays, the Intavis CelluSpots™ technique was used. Specifically, the peptide arrays were prepared by the following procedure: (1) synthesizing peptides of interest on amino-modified cellulose disks using an automated chemical synthesis apparatus (Intavis MultiPep RS), (2) dissolving the amino-modified cellulose disks to obtain a cellulose-bound peptide solution, and (3) spotting the cellulose-bound peptides onto coated glass slides. The details of each procedure are as described below.
Peptide synthesis was carried out in incremental steps through 9-fluorenylmethoxycarbonyl (Fmoc) chemical reaction on amino-modified cellulose disks in 384-well synthesis plates. Specifically, amino acids in which a Fmoc group is bonded to an amino group were activated in a solution of N,N′-diisopropylcarbodiimide (DIC) and 1-hydroxybenzotriazole (HOBt) in dimethylformamide (DMF) and added dropwise to the cellulose disks so that the Fmoc group-bound amino acids were bound to the amino groups on the cellulose disks (coupling). Unreacted amino groups were capped with acetic anhydride and washed with DMF. Furthermore, the Fmoc groups were eliminated from the amino groups of the amino acids bound to the amino groups on the cellulose disks by treatment with piperidine and washing with DMF. The amino acids bound to the amino groups on the cellulose disks were repetitively subjected to the coupling, the capping, and the Fmoc group elimination described above to elongate the amino terminus for peptide synthesis.
The peptides-bound cellulose disks of interest obtained above in the subsection titled “(1) Synthesis of peptide” were transferred to 96-well plates and treated with a side chain deprotection mixed solution of trifluoroacetic acid (TFA), dichloromethane, triisopropylsilane (TIPS), and water for deprotection of amino acid side chains. Then, the deprotected cellulose-bound peptides were dissolved in a mixed solution of TFA, trifluoromethanesulfonic acid (TFMSA), TIPS, and water and precipitated in tetrabutyl methyl ether (TBME), and the precipitate was resuspended in dimethyl sulfoxide (DMSO) and mixed with a mixed solution of NaCl, sodium citrate, and water to obtain a peptide solution for slide spotting.
The peptide solution for slide spotting obtained above in the subsection titled “(2) Dissolution of amino-modified cellulose disk” was spotted onto Intavis CelluSpots™ slides using Intavis Slide Spotting Robot, and the slides were dried to prepare peptide arrays.
The presence or absence of binding, to each peptide fragment, of an IgE antibody present in the serum of a shrimp-allergic patient was measured through antigen-antibody reaction using the peptide arrays. […]

| Substance | Peptide bound to an IgE antibody in serum in a patient-specific manner |
| --- | --- |
| E46: common 15-residue IgE-binding epitope sequence of polypeptide (E46), phosphopyruvate hydratase-derived (TGVHEALEMRDGDKS; VAR_SEQ 1..15 epitope) [Epitope E46] | bound to an IgE antibody in serum in a patient-specific manner |
| E47: common 15-residue IgE-binding epitope sequence of polypeptide (E47), phosphopyruvate hydratase-derived (HLKAVIKGRFGLDAT; VAR_SEQ 1..15 epitope) [Epitope E47] | bound to an IgE antibody in serum in a patient-specific manner |
| E48: common 15-residue IgE-binding epitope sequence of polypeptide (E48), troponin I-derived (EEIDRKKAEVRKRLE; VAR_SEQ 1..15 epitope) [Epitope E48] | bound to an IgE antibody in serum in a patient-specific manner |
| E49: common 15-residue IgE-binding epitope sequence of polypeptide (E49), troponin I-derived (RKKKLRLLLRKKAAE; VAR_SEQ 1..15 epitope) [Epitope E49] | bound to an IgE antibody in serum in a patient-specific manner |
| E50: common 15-residue IgE-binding epitope sequence of polypeptide (E50), cyclophilin A-derived (AADNQPVGRIVMELR; VAR_SEQ 1..15 epitope) [Epitope E50] | bound to an IgE antibody in serum in a patient-specific manner |
